Reference: ChEMBL document CHEMBL5303767, “Data for DCP probe JNJ-4355” (2023)
Active and inactive are the calls of the source. No cut-off for these calls is given here.

Legend:
[1] = target: Beta-2 adrenergic receptor (Homo sapiens) (UniProt P07550); settings: Compound concentration 10.0 uM
[2] = tested on: NOMO-1; test: NOMO-1 cell line Proliferation assay; type: functional, Homo sapiens
[3] = target: Sodium-dependent dopamine transporter (Homo sapiens, UniProt Q01959); settings: Compound concentration 10.0 uM
[4] = species on record: Rattus norvegicus; settings: Compound concentration 10.0 uM
[5] = target: Alpha-2C adrenergic receptor (Homo sapiens) (UniProt P18825); settings: Compound concentration 10.0 uM
Chain of Alpha-2C adrenergic receptor (Homo sapiens) (P18825 whole entry): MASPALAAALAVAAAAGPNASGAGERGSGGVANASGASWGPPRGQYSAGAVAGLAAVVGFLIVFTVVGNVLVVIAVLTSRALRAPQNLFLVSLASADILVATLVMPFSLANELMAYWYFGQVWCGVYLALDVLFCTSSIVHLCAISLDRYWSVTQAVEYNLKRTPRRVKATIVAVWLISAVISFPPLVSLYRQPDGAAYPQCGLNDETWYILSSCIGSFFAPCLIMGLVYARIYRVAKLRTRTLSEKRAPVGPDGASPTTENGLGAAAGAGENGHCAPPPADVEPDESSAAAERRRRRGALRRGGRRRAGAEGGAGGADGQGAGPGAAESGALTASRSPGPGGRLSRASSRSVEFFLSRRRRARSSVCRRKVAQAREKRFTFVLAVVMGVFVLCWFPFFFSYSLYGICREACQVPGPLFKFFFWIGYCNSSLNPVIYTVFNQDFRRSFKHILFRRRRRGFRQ

[6] = target: Histamine H1 receptor (Homo sapiens) (UniProt P35367); settings: Compound concentration 10.0 uM
[7] = target: Alpha-1D adrenergic receptor (Homo sapiens) (UniProt P25100); settings: Compound concentration 10.0 uM
Chain of Alpha-1D adrenergic receptor (Homo sapiens) (P25100 whole entry): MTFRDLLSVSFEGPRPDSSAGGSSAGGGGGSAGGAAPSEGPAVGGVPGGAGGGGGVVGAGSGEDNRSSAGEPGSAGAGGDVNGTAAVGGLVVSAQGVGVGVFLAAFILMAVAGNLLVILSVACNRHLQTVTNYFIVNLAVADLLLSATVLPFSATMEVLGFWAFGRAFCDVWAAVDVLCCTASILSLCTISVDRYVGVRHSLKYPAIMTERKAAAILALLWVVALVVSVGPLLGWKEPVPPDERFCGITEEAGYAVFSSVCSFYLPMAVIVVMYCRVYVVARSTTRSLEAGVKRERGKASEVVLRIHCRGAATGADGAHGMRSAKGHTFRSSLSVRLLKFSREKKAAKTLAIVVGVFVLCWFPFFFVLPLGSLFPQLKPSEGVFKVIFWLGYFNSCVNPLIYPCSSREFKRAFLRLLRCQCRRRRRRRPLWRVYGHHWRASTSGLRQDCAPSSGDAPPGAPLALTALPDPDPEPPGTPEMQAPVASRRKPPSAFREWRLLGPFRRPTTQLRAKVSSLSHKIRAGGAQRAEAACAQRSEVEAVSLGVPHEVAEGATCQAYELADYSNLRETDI

[8] = target: 5-hydroxytryptamine receptor 5A (Homo sapiens, UniProt P47898); settings: Compound concentration 10.0 uM
[9] = target: 5-hydroxytryptamine receptor 2A (Homo sapiens) (UniProt P28223); settings: Compound concentration 10.0 uM
[10] = target: Muscarinic acetylcholine receptor M3 (Homo sapiens) (UniProt P20309); settings: Compound concentration 10.0 uM
[11] = target: Histamine H2 receptor (Homo sapiens) (UniProt P25021); settings: Compound concentration 10.0 uM
[12] = target: D(1A) dopamine receptor (Homo sapiens) (UniProt P21728); settings: Compound concentration 10.0 uM
Chain of D(1A) dopamine receptor (Homo sapiens) (P21728 whole entry): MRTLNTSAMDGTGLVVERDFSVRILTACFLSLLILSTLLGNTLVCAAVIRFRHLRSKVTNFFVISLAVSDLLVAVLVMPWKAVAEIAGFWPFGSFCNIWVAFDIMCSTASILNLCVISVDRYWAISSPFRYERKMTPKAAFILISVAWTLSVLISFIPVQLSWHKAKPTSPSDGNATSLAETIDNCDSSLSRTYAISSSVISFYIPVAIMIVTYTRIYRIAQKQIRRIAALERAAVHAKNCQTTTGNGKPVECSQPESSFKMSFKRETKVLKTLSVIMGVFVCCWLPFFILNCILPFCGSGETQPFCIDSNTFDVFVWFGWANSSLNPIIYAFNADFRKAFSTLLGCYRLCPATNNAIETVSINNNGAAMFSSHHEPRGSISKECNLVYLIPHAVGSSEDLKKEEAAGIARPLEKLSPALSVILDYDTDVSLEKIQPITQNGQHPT

[13] = tested on: MOLP-8; test: MOLP8 cell line Proliferation assay; type: functional, Homo sapiens
[14] = target: T1, Delta-type opioid receptor (Homo sapiens, UniProt P41143); settings: Compound concentration 10.0 uM
T1 sequence (P41143 whole entry): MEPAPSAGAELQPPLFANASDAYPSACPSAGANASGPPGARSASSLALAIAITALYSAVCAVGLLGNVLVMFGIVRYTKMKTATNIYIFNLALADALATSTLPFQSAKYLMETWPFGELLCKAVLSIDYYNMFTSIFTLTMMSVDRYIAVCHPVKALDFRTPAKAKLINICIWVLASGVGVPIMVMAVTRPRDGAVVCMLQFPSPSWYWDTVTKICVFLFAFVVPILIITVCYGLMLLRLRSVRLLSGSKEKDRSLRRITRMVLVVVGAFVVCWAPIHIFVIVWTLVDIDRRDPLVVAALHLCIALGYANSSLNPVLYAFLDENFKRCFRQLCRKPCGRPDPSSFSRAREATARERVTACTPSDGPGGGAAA

[15] = target: Sodium-dependent noradrenaline transporter (Homo sapiens, UniProt P23975); settings: Compound concentration 10.0 uM
[16] = target: Kappa-type opioid receptor (Homo sapiens) (UniProt P41145); settings: Compound concentration 10.0 uM
[17] = target: D(4) dopamine receptor (Homo sapiens) (UniProt P21917); settings: Compound concentration 10.0 uM
[18] = tested on: SUD4; test: SU-DHL-4 cell line Proliferation assay; type: functional, Homo sapiens
[19] = tested on: Mino; test: MINO cell line Proliferation assay; type: functional, Homo sapiens
[20] = target: 5-hydroxytryptamine receptor 1A (Homo sapiens) (UniProt P08908); settings: Compound concentration 10.0 uM
[21] = target: 5-hydroxytryptamine receptor 2C (Homo sapiens) (UniProt P28335); settings: Compound concentration 10.0 uM
[22] = tested on: OCI-AML2; test: OCI-AML-2 cell line Proliferation assay; type: functional, Homo sapiens
[23] = target: D(1B) dopamine receptor (Homo sapiens) (UniProt P21918); settings: Compound concentration 10.0 uM
[24] = target: 5-hydroxytryptamine receptor 7 (Homo sapiens) (UniProt P34969); settings: Compound concentration 10.0 uM
[25] = target: Bcl-2-like protein 1 (Homo sapiens, UniProt Q07817); test: HTRF (BCL2L1)
[26] = target: Alpha-1B adrenergic receptor (Homo sapiens) (UniProt P35368); settings: Compound concentration 10.0 uM
[27] = target: Muscarinic acetylcholine receptor M1 (Homo sapiens) (UniProt P11229); settings: Compound concentration 10.0 uM
[28] = target: Beta-3 adrenergic receptor (Homo sapiens) (UniProt P13945); settings: Compound concentration 10.0 uM
[29] = target: Muscarinic acetylcholine receptor M5 (Homo sapiens) (UniProt P08912); settings: Compound concentration 10.0 uM
Chain of Muscarinic acetylcholine receptor M5 (Homo sapiens) (P08912 whole entry): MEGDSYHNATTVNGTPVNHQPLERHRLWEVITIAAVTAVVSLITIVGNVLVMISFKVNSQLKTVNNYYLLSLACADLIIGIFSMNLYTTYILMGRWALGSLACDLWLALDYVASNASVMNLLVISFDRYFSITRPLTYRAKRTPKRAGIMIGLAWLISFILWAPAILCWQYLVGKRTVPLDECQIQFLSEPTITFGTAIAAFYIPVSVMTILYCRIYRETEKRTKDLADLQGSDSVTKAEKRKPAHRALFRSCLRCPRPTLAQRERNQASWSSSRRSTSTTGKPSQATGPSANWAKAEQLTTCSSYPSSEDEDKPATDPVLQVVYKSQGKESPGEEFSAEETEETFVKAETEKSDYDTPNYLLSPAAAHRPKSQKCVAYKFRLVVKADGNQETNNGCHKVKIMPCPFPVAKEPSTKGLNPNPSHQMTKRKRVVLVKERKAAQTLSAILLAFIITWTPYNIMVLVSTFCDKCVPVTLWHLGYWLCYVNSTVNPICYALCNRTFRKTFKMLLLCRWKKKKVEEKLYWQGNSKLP

[30] = target: T2, Induced myeloid leukemia cell differentiation protein Mcl-1 (Homo sapiens, UniProt Q07820); test: HTRF (MCL1)
T2 sequence (Q07820 whole entry): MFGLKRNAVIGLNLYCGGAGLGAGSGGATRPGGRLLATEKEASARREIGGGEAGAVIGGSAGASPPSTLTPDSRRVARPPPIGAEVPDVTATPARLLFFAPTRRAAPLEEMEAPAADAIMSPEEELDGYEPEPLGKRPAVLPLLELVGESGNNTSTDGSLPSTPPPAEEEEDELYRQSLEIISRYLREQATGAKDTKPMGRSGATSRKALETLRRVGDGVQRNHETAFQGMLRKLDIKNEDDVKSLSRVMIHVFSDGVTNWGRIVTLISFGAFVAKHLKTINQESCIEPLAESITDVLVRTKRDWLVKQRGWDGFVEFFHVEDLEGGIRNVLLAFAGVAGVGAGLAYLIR

[31] = tested on: KMS-12-PE; test: KMS-12-PE Bax/Bak dKO cell line Proliferation assay; type: functional, Homo sapiens
[32] = target: T2, Induced myeloid leukemia cell differentiation protein Mcl-1; test: Caspase Glo MOLP-8 assay; type: functional, cell-based, MOLP8
[33] = target: Sigma non-opioid intracellular receptor 1 (Homo sapiens) (UniProt Q99720); settings: Compound concentration 10.0 uM
Chain of Sigma non-opioid intracellular receptor 1 (Homo sapiens) (Q99720 whole entry): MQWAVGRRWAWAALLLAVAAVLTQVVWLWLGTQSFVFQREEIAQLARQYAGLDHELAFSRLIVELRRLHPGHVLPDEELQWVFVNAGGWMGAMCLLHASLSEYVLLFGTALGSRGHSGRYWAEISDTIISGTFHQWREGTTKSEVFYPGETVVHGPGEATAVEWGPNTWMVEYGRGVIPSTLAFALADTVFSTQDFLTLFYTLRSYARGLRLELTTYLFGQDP

[34] = target: Sodium-dependent serotonin transporter (Homo sapiens) (UniProt P31645); settings: Compound concentration 10.0 uM
[35] = tested on: KMS-12-PE; test: KMS-12-PE MCL-1 KO cell line Proliferation assay; type: functional, Homo sapiens
[36] = target: Mu-type opioid receptor (Homo sapiens, UniProt P35372); test: GPCRScan assay: inhibition of MOR; set-up: radioligand conc. used [nm] 1.0 – 2.0, parental cells stable HEK
[37] = target: Alpha-2B adrenergic receptor (Homo sapiens) (UniProt P18089); settings: Compound concentration 10.0 uM
[38] = tested on: KMS-12-PE; test: (§1) KMS-12-PE cell line Proliferation assay; type: functional, Homo sapiens
[39] = tested on: EOL1; test: EOL-1 cell line Proliferation assay; type: functional, Homo sapiens
[40] = target: Apoptosis regulator Bcl-2 (Homo sapiens, UniProt P10415); test: HTRF (BCL2); type: functional
[41] = target: 5-hydroxytryptamine receptor 2B (Homo sapiens) (UniProt P41595); settings: Compound concentration 10.0 uM
Chain of 5-hydroxytryptamine receptor 2B (Homo sapiens) (P41595 whole entry): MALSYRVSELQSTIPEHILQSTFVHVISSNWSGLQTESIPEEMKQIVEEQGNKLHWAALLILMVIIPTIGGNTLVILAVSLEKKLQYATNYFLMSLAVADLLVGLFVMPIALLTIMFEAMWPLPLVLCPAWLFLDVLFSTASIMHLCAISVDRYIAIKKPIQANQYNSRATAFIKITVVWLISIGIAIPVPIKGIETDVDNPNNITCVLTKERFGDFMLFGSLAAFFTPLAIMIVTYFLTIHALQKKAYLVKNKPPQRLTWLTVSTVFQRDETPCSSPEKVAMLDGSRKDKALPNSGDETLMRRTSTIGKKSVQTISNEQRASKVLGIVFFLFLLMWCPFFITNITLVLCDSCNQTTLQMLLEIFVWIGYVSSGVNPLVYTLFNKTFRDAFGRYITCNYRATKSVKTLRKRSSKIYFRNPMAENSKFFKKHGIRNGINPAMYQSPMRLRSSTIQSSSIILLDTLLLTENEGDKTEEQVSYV

[42] = target: Bcl-2-related protein A1 (Homo sapiens, UniProt Q16548); test: HTRF (BCL2A1)
[43] = tested on: MOLM-13; test: MOLM-13 cell line Proliferation assay; type: functional, Homo sapiens
[44] = target: 5-hydroxytryptamine receptor 3A (Homo sapiens) (UniProt P46098); settings: Compound concentration 10.0 uM
[45] = target: 5-hydroxytryptamine receptor 1B (Homo sapiens) (UniProt P28222); settings: Compound concentration 10.0 uM
[46] = target: 5-hydroxytryptamine receptor 1D (Homo sapiens) (UniProt P28221); settings: Compound concentration 10.0 uM
[47] = tested on: THP-1; test: THP-1 cell line Proliferation assay; type: functional, Homo sapiens
[48] = tested on: KMS-12-PE; test: as §1; type: functional, Homo sapiens; remark: listed apart in the source
[49] = target: Sigma intracellular receptor 2 (Homo sapiens) (UniProt Q5BJF2); settings: Compound concentration 10.0 uM
Chain of Sigma intracellular receptor 2 (Homo sapiens) (Q5BJF2 whole entry): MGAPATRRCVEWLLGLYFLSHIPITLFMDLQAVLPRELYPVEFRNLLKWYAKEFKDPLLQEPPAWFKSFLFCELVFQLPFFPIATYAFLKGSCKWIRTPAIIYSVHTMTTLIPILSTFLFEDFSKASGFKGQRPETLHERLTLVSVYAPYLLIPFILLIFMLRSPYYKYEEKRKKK

[50] = target: D(2) dopamine receptor (Homo sapiens) (UniProt P14416); settings: Compound concentration 10.0 uM
Chain of D(2) dopamine receptor (Homo sapiens) (P14416 whole entry): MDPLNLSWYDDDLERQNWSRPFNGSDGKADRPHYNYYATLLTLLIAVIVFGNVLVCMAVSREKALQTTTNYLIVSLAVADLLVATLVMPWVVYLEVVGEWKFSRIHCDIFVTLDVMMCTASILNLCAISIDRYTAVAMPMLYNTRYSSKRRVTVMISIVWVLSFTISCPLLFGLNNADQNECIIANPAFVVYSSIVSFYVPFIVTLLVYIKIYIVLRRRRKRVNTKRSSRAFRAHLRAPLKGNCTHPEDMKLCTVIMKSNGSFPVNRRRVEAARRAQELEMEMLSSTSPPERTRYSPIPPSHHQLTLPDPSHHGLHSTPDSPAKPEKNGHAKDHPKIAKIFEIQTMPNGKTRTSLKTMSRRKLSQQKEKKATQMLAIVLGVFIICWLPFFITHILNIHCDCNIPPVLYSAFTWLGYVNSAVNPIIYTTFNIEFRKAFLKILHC

[51] = target: T1, Delta-type opioid receptor; test: GPCRScan assay: inhibition of DOR; set-up: radioligand conc. used [nm] 1.0 – 2.0, parental cells stable HEK
[52] = tested on: MV4-11; test: MV4-11 cell line Proliferation assay; type: functional, Homo sapiens
[53] = target: D(3) dopamine receptor (Homo sapiens) (UniProt P35462); settings: Compound concentration 10.0 uM
Chain of D(3) dopamine receptor (Homo sapiens) (P35462 whole entry): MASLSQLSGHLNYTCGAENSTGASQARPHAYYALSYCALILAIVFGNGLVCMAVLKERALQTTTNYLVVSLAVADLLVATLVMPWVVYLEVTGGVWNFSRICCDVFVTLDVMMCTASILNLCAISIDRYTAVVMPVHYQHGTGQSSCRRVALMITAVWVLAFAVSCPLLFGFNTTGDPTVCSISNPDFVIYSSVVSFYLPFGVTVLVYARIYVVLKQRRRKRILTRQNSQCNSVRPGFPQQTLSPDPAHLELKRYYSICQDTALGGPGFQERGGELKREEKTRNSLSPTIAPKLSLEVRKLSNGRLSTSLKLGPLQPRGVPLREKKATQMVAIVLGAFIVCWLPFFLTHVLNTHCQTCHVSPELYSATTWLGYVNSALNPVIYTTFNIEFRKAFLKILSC

[54] = target: Histamine H3 receptor (Homo sapiens) (UniProt Q9Y5N1); settings: Compound concentration 10.0 uM
[55] = target: Muscarinic acetylcholine receptor M2 (Homo sapiens) (UniProt P08172); settings: Compound concentration 10.0 uM
Chain of Muscarinic acetylcholine receptor M2 (Homo sapiens) (P08172 whole entry): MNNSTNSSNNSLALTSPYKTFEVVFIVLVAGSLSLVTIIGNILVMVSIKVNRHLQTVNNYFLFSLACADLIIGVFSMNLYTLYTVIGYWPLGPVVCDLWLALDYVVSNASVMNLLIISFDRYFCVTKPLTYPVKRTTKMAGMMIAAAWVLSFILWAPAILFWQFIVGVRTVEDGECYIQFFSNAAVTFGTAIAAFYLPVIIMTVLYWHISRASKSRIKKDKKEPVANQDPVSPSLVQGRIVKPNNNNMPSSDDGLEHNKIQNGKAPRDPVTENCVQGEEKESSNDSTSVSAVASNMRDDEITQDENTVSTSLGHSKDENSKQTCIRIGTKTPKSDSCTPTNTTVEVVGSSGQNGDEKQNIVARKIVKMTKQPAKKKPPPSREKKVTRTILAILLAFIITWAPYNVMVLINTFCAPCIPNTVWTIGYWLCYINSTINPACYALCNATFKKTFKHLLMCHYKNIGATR

[56] = target: Alpha-2A adrenergic receptor (Homo sapiens) (UniProt P08913); settings: Compound concentration 10.0 uM

## COCCOCCn1nc2c(c1C)-c1c(Cl)ccc3c1c(C)c(C(=O)O)n3CCCOc1cc(cc3c(F)c(Cl)ccc13)CCc1cc(nn1C)CSC2
[1]
  inhibition: 4.71%
[2]
  Cell Proliferation AC50: 4.8 nM
[3]
  inhibition: 49.5%
[4]
  inhibition: 18.7%
[5]
  inhibition: 3.84%
[6]
  inhibition: -0.28%
[7]
  inhibition: 2.28%
[8]
  inhibition: 28.5%
[9]
  inhibition: -0.64%
[10]
  inhibition: -0.43%
[11]
  inhibition: 13.1%
[12]
  inhibition: 10.4%
[13]
  Cell Proliferation AC50: 8.7 nM
[14]
  inhibition: 61.9%
[15]
  inhibition: 30.1%
[16]
  inhibition: 0.68%
[17]
  inhibition: 2.7%
[18]
  Cell Proliferation AC50: 21 nM
[19]
  Cell Proliferation AC50: 73 nM
[20]
  inhibition: 47.8%
[21]
  inhibition: 1.66%
[22]
  Cell Proliferation AC50: 48 nM
[23]
  inhibition: 26.2%
[24]
  inhibition: 20.1%
[25]
  Ki: > 5000 nM (not active)
[26]
  inhibition: -1.94%
[27]
  inhibition: 4.67%
[28]
  inhibition: 24.5%
[29]
  inhibition: -9.51%
[30]
  Ki: 0.015 nM (active)
[31]
  Cell Proliferation AC50: >30000 nM
[32]
  AC50: 12 nM (active)
[33]
  inhibition: 20.6%
[34]
  inhibition: 11.2%
[35]
  Cell Proliferation AC50: >30000 nM
[36]
  Ki: > 10000 nM
  pKi: < 5
[37]
  inhibition: 6.6%
[38]
  Cell Proliferation AC50: 69 nM
[39]
  Cell Proliferation AC50: 2.1 nM
[40]
  Ki: > 3750 nM (not active)
[41]
  inhibition: -1.5%
[42]
  Ki: > 5000 nM (not active)
[43]
  Cell Proliferation AC50: 10 nM
[44]
  inhibition: 6.57%
[45]
  inhibition: 9.97%
[46]
  inhibition: -6.42%
[47]
  Cell Proliferation AC50: 27 nM
[48]
  Cell Proliferation AC50: 79 nM
[49]
  inhibition: 17.4%
[50]
  inhibition: -6.66%
[51]; read-out: Ki
  Ki: 871 nM
[51]; read-out: pKi (converted)
  Ki: 724 nM
[52]
  Cell Proliferation AC50: 14 nM
[53]
  inhibition: 13.5%
[54]
  inhibition: 4.96%
[55]
  inhibition: -0.94%
[56]
  inhibition: 21.5%
